# Laboratory results from patent US20240091242A1, “LIPIDS THAT REDUCE LUNG DAMAGE, IMPROVE PULMONARY FUNCTION AND DECREASE PRO-INFLAMMATORY CYTOKINES” (Signpath Pharma, Inc., priority 2021, published 2024).
# System: pro-inflammatory cytokines in the plasma
# Test: Multiplex analysis of cytokine levels in plasma, murine LPS ARDS model
# Format: in vivo, mouse
# Conditions: for IL3 level in plasma / IL7 level in plasma / MCP-1 level in plasma / MIP-1alpha level in plasma / MIP-2 level in plasma: in pg/mL (unit assumed)
# Source text: C57B16/N mice were obtained from Charles River Laboratories (Montreal, Quebec). Male mice, 20-25 g of body weight, were used throughout the studies. Animals were housed in specific pathogen[…]free conditions, and all experiments were approved by Institutional Animal Care and Use Committee (IPST_SL20200402-1). Animal studies are reported in compliance with […] guidelines.
# All delivered mice were kept for one week as an acclimatization period prior to performing any experiments. Animals were housed in a maximum of two mice per cage under a 12[…]h light/12[…]h dark cycle at a temperature of ˜20-22° C. and 40-60% humidity. Food and water were available ad libitum. Each cage of mice was blindly assigned for different treatments or maintained as a control group according to the experimental design. The individual who carried out the experiments was not blinded as to treatment, but data analysis and experiments were otherwise blinded to avoid any bias.
# In the ARDS group, mice received Escherichia coli O111:B4 lipopolysaccharide (50 μg in 0.05 mL saline, i.t.), while, in the control group, the animals received an instillation of saline (0.05 mL, i.t.). For intratracheal instillation, mice were slightly anesthetized with isoflurane.
# The lipid SPPCT-800 was dissolved in water (low dose—2 mg/ml; high dose—20 mg/ml). For the 24-hour study, two treatment approaches were used. Mice received a single dose of SPPCT-800 (200 mg/kg, per gavage) as prevention (30 minutes before the LPS instillation), or as a single dose of either 20 mg/kg or 200 mg/kg as therapy (3-hour after the LPS instillation). For the 72-hour study, mice received a total of 8 treatments of SPPCT-800 (200 mg/kg) starting at 3-hour after the LPS instillation. Disease progression in mice was assessed by the evaluation of pulmonary functions, blood oxygen saturation, and body weight change. On the terminal day of each study (24 hours or 72 hours), measurement of cytokine levels in the plasma and BALF, and histopathology evaluations were done.
# Multiplex analysis of mediators. The inventors quantified 31 different mediators in the BALF and plasma by using a Discovery Assay® (Mouse Cytokine and Chemokine Array 31-Plex (MD31), Eve Technologies Corp, Calgary, AB, Canada). The multiplex assay was performed at Eve Technologies using the Bio-Plex™ 200 system (Bio-Rad Laboratories, Inc., Hercules, CA, USA) and a Milliplex Mouse Cytokine/Chemokine kit (Millipore, St. Charles, MO, USA) according to Eve Tech protocol. The 31-plex consisted of Eotaxin, G-CSF, GM-CSF, IFN-γ, IL-1α, IL-1β, IL-2, IL-3, IL-4, IL-5, IL-6, IL-7, IL-9, IL-10, IL-12 (p40), IL-12 (p70), IL-13, IL-15, IL-17, IP-10, KC, LIF, MCP-1, M-CSF, MIG, MIP-1α, MIP-1β, MIP-2,RANTES, TNFα, and VEGF. The assay sensitivities of these markers range from 0.1 pg/mL to 33.3 pg/mL. Individual analytes' values and other assay details are available on Eve Technologies' website and in the Milliplex protocol.
# Statistical Analysis. Results are expressed as means±SEM. Comparisons were made on normally distributed data using ANOVA, followed by a Fisher post hoc test to assess the difference between LPS+vehicle group with GraphPad Prism Software version 8.0 (San Diego, CA, USA). Differences were considered statistically significant when P values were less than 0.05. (* Shown difference versus Sham animals and # shown difference versus LPS+Vehicle group. * Means P<0.05, ** P<0.01, *** P<0.001 while # means P<0.05, ##P<0.01 and ###P<0.001).
# [1] = 24-hours, Pre: SPP4040 30 minutes before LPS
# [2] = 24-hours, Thera: SPP4040 3 hours after LPS
# [3] = 72-hours, Thera: eight SPP4040 injections over 72 hours after LPS
structure (smiles),measurement,setting,value
CCCCCCCCCCCCCC(=O)OCC(COP(=O)([O-])OCC(COC(=O)CCC)OC(=O)CCC)OC(=O)CCCCCCCCCCCCC.CCCCCCCCCCCCCC(=O)OCC(COP(=O)([O-])OCC(COC(=O)CCC)OC(=O)CCC)OC(=O)CCCCCCCCCCCCC.[Mg+2] (centres unmarked) [SPPCT-800],Eotaxin level in plasma,[1],719 ± 138
same,G-CSF level in plasma,[1],21035 ± 2241
same,GM-CSF level in plasma,[1],12 ± 2
same,IFN gamma level in plasma,[1],1 ± 1
same,IL1-alpha level in plasma,[1],3196 ± 3107
same,IL1-beta level in plasma,[1],3.8 ± 0.7
same,IL2 level in plasma,[1],11 ± 3
same,IL4 level in plasma,[1],0.2 ± 0.1
same,IL5 level in plasma,[1],8 ± 2
same,IL6 level in plasma,[1],176 ± 29
same,IL9 level in plasma,[1],2 ± 1
same,IL10 level in plasma,[1],57 ± 8
same,IL12 (p40) level in plasma,[1],12 ± 1
same,IL12 (p70) level in plasma,[1],17 ± 7
same,IL13 level in plasma,[1],22 ± 3
same,IL15 level in plasma,[1],63 ± 15
same,IL17 level in plasma,[1],2.6 ± 0.3
same,IP-10 level in plasma,[1],790 ± 206
same,KC level in plasma,[1],1271 ± 224
same,LIF level in plasma,[1],1.3 ± 0.2
same,LIX level in plasma,[1],470 ± 145
same,M-CSF level in plasma,[1],12 ± 1
same,MIG level in plasma,[1],2486 ± 203
same,MIP-1beta level in plasma,[1],109 ± 8
same,RANTES level in plasma,[1],200 ± 28
same,TNF-alpha level in plasma,[1],14 ± 1
same,VEGF level in plasma,[1],0.5 ± 0.1
same,IL3 level in plasma,[1],0.9 ± 0.1
same,IL7 level in plasma,[1],8 ± 2
same,MCP-1 level in plasma,[1],86 ± 20
same,MIP-1alpha level in plasma,[1],88 ± 4
same,MIP-2 level in plasma,[1],138 ± 7
same,Eotaxin level in plasma,[2],855 ± 228
same,G-CSF level in plasma,[2],22915 ± 410
same,GM-CSF level in plasma,[2],11 ± 1
same,IFN gamma level in plasma,[2],1 ± 1
same,IL1-alpha level in plasma,[2],159 ± 39
same,IL1-beta level in plasma,[2],3.6 ± 0.6
same,IL2 level in plasma,[2],16 ± 1
same,IL4 level in plasma,[2],0.4 ± 0.2
same,IL5 level in plasma,[2],11 ± 2
same,IL6 level in plasma,[2],155 ± 30
same,IL9 level in plasma,[2],6 ± 2
same,IL10 level in plasma,[2],90 ± 32
same,IL12 (p40) level in plasma,[2],12 ± 2
same,IL12 (p70) level in plasma,[2],40 ± 19
same,IL13 level in plasma,[2],22 ± 2
same,IL15 level in plasma,[2],49 ± 16
same,IL17 level in plasma,[2],2.3 ± 0.6
same,IP-10 level in plasma,[2],605 ± 102
same,KC level in plasma,[2],764 ± 274
same,LIF level in plasma,[2],1.5 ± 0.2
same,LIX level in plasma,[2],547 ± 203
same,M-CSF level in plasma,[2],16 ± 4
same,MIG level in plasma,[2],2593 ± 317
same,MIP-1beta level in plasma,[2],120 ± 29
same,RANTES level in plasma,[2],270 ± 70
same,TNF-alpha level in plasma,[2],14 ± 1
same,VEGF level in plasma,[2],0.6 ± 0.1
same,IL3 level in plasma,[2],0.5 ± 0.7
same,IL7 level in plasma,[2],4 ± 1
same,MCP-1 level in plasma,[2],157 ± 62
same,MIP-1alpha level in plasma,[2],92 ± 7
same,MIP-2 level in plasma,[2],128 ± 5
same,TNF-α levels in the plasma (in words),"72-hour study, P<0.05",markedly reduced
same,Eotaxin level in plasma,[3],464 ± 252
same,G-CSF level in plasma,[3],1116 ± 502
same,GM-CSF level in plasma,[3],6 ± 2
same,IFN gamma level in plasma,[3],6 ± 2
same,IL1-alpha level in plasma,[3],63 ± 27
same,IL1-beta level in plasma,[3],6.8 ± 3.8
same,IL2 level in plasma,[3],34 ± 10
same,IL4 level in plasma,[3],0.6 ± 0.4
same,IL5 level in plasma,[3],2 ± 1
same,IL6 level in plasma,[3],76 ± 31
same,IL9 level in plasma,[3],3 ± 1
same,IL10 level in plasma,[3],5 ± 1
same,IL12 (p40) level in plasma,[3],8 ± 1
same,IL12 (p70) level in plasma,[3],11 ± 5
same,IL13 level in plasma,[3],23 ± 3
same,IL15 level in plasma,[3],40 ± 22
same,IL17 level in plasma,[3],4 ± 3
same,IP-10 level in plasma,[3],150 ± 34
same,KC level in plasma,[3],502 ± 150
same,LIF level in plasma,[3],0.5 ± 0.1
same,LIX level in plasma,[3],574 ± 445
same,M-CSF level in plasma,[3],5 ± 2
same,MIG level in plasma,[3],447 ± 137
same,MIP-1beta level in plasma,[3],55 ± 13
same,RANTES level in plasma,[3],19 ± 2
same,TNF-alpha level in plasma,[3],7 ± 2
same,VEGF level in plasma,[3],7.4 ± 2.4
same,IL3 level in plasma,[3],0.1 ± 0.1
same,IL7 level in plasma,[3],3 ± 1
same,MCP-1 level in plasma,[3],34 ± 6
same,MIP-1alpha level in plasma,[3],133 ± 11
same,MIP-2 level in plasma,[3],56 ± 17
same,"IL-1β, IL-2, IL-3, IL-4, IL-5, IL-6, IL-7, IL-9, IL-10, IL-12 (p40), IL-12 (p70), IL-13, IL-15 and IL-17 in plasma (in words)",at 24 hours,markedly reduced
same,MCP-1 in the plasma (in words),at 24 hours and at 72 hours,inhibited
same,MIP-1α and MIP 1-β in the plasma (in words),at 24 hours and at 72 hours,Suppressive effects
same,GM-CSF in the plasma (in words),"at 24 hours, 200 mg/kg preventive, 20 mg/kg therapeutic and 200 mg/kg therapeutic, P<0.001",highly significant depressions
same,TNF-α in the plasma (in words),"at 24 hours, all three single dose groups, P<0.001",markedly reduced
same,IFN-γ levels in the plasma (in words),"at 24 hours, all three single-dose groups, P<0.01",profoundly depressed
same,levels of plasma IL-1α (in words),"at 24 hours, any of the mouse groups",did not reduce
same,IFN-γ levels in the plasma (in words),at 72 hours,Large reductions
same,GM-CSF in the plasma (in words),"at 72 hours, P<0.01",significant decreases
same,RANTES in the plasma (in words),at both 24 hours and 72 hours,suppressed
same,"MIG, IP10 and Eotaxin (in words)","marked suppression in the plasma or the BALF, but not in both",mixed
same,"G-CSF, VEGF, KC, LIF, LIX and M-CSF in the plasma (in words)","mouse, in vivo",suppressed
same,number of the 15 interleukins tested in which major reductions were consistently noted,plasma and BALF,14
